Measurements taken from ChEMBL document CHEMBL1201862, “PubChem BioAssay data set” (2004).
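Where inhibition never reached the appropriate level, the endpoint shown equals the highest concentration tested. Otherwise, values were interpolated linearly from a five-concentration, 48-hour dose response in 96-well plates. GI50 marks 50% less growth.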 The source made the active and inactive calls. No stated cut-off is given here; in the data, active = GI50 up to about 1.1 µM and inactive = higher.

Columns and labels:
Assay in all cases: NCI anticancer screen, dose series, 48 h
SF-295 = system: SF-295
SK-MEL-5 = system: SK-MEL-5
HT-29 = system: HT-29
OVCAR-3 = system: OVCAR-3
NCI-H23 = system: NCI-H23
MCF7 = system: MCF7
786-0 = system: 786-0
TK-10 = system: TK-10
HCT-15 = system: HCT-15
NCI-H226 = system: NCI-H226
UACC-257 = system: UACC-257
NCI-H522 = system: NCI-H522
A498 = system: A498
HL-60 = system: HL-60
IGROV-1 = system: IGROV-1
SK-MEL-28 = system: SK-MEL-28
SK-MEL-2 = system: SK-MEL-2
Hs-578T = system: Hs-578T
SR = system: SR
HCT-116 = system: HCT-116

Row | Compound | GI50 (SF-295) | GI50 (SK-MEL-5) | GI50 (HT-29) | GI50 (OVCAR-3) | GI50 (NCI-H23) | GI50 (MCF7) | GI50 (786-0) | GI50 (TK-10) | GI50 (HCT-15) | GI50 (NCI-H226) | GI50 (UACC-257) | GI50 (NCI-H522) | GI50 (A498) | GI50 (HL-60) | GI50 (IGROV-1) | GI50 (SK-MEL-28) | GI50 (SK-MEL-2) | GI50 (Hs-578T) | GI50 (SR) | GI50 (HCT-116)
1 | c1ccc2c3c([nH]c2c1)C1CCCN1CC3 (configuration not stated) | > 10 µM (inactive) | > 10 µM (inactive) | > 10 µM (inactive) | > 10 µM (inactive) | > 10 µM (inactive) | > 10 µM (inactive) | > 10 µM (inactive) | > 10 µM (inactive) | > 10 µM | > 10 µM (inactive) | > 10 µM (inactive) | > 10 µM (inactive) | > 10 µM (inactive) | > 10 µM (inactive) | > 10 µM (inactive) | > 10 µM (inactive) | > 10 µM (inactive) | > 10 µM (inactive) | > 10 µM (inactive) | 
2 | COc1ccc(/C=C2\CCC(CN3CCOCC3)C2=O)cc1 (configuration not stated) | 17.2 µM (inactive) | 4.62 µM (inactive) | 2.44 µM (inactive) | 3.28 µM (inactive) | 5.94 µM (inactive) | 2.38 µM (inactive) | 1.65 µM (inactive) | 3.57 µM (inactive) | 2.39 µM | 18.9 µM (inactive) | 2.37 µM (inactive) | 0.776 µM (active) | 9.44 µM (inactive) | 0.762 µM (active) | 4 µM (inactive) | 3.06 µM (inactive) | 3.78 µM (inactive) | 3.04 µM (inactive) | 1.46 µM (inactive) | 1.8 µM (inactive)
3 | O=c1c2c3c(sc2nc2n1N=C(c1ccc(Cl)cc1)CS2)CCCC3 | > 100 µM (inactive) | > 100 µM (inactive) | > 100 µM (inactive) | > 100 µM (inactive) | > 100 µM (inactive) | > 100 µM (inactive) | > 100 µM (inactive) | > 100 µM (inactive) | > 100 µM | > 100 µM (inactive) | > 100 µM (inactive) | > 100 µM (inactive) | > 100 µM (inactive) | > 100 µM (inactive) | > 100 µM (inactive) | > 100 µM (inactive) |  | > 100 µM (inactive) | > 100 µM (inactive) | > 100 µM (inactive)
4 | COc1ccccc1C1c2cc3c(cc2OC(N2CCCC2)C1C)OCO3 (configuration not stated) | 16.7 µM (inactive) | 14.5 µM (inactive) | 21.4 µM (inactive) | 15.7 µM (inactive) | 18.3 µM (inactive) | 18.9 µM (inactive) | 16.8 µM (inactive) | 18.5 µM (inactive) | 17.2 µM |  | 20.4 µM (inactive) | 9.95 µM (inactive) | 15.2 µM (inactive) | 14.2 µM (inactive) | 19.3 µM (inactive) | 20.4 µM (inactive) | 14.8 µM (inactive) | 7.48 µM (inactive) | 6.21 µM (inactive) | 14.8 µM (inactive)
5 | O=C(O)c1ccc([N+](=O)[O-])c2cc3cnccc3nc12 | 43.5 µM (inactive) | 19.1 µM (inactive) | 22.6 µM (inactive) | 21.2 µM (inactive) | 24.6 µM (inactive) | 19.3 µM (inactive) |  |  | 20.1 µM | 30.3 µM (inactive) |  | 13.4 µM (inactive) | 70 µM (inactive) | > 100 µM (inactive) | 34.7 µM (inactive) | 18.6 µM (inactive) | 17.9 µM (inactive) | 35 µM (inactive) | 43.2 µM (inactive) | 18.4 µM (inactive)
6 | NC1=NC(NCC2(CO)CCC2)=CC(OCC2(CO)CCC2)N1 (configuration not stated) | > 100 µM (inactive) | 79.3 µM (inactive) | > 100 µM (inactive) | > 100 µM (inactive) | 26.2 µM (inactive) | > 100 µM (inactive) | > 100 µM (inactive) |  | > 100 µM | > 100 µM (inactive) | > 100 µM (inactive) | > 100 µM (inactive) | > 100 µM (inactive) | 78.2 µM (inactive) | > 100 µM (inactive) | > 100 µM (inactive) | > 100 µM (inactive) | > 100 µM (inactive) | 82.8 µM (inactive) | > 100 µM (inactive)
7 | C=C[C@H]1CC[C@H]2[C@@H]3CC=C4C[C@@H](OC5OCC(O)C(O)C5O)CC[C@]4(C)[C@H]3CC[C@]12C (some centres not stated) | 15.2 µM (inactive) | 18.2 µM (inactive) | 24.4 µM (inactive) | 11.9 µM (inactive) | 26.1 µM (inactive) | 36.8 µM (inactive) | 15.3 µM (inactive) |  | 25.5 µM | 15.5 µM (inactive) | 82.8 µM (inactive) | 11.4 µM (inactive) | 4.22 µM (inactive) | 29.7 µM (inactive) | 10 µM (inactive) |  | 16.6 µM (inactive) | 17.1 µM (inactive) | 14.7 µM (inactive) | 13.7 µM (inactive)
8 | C=CCn1c(=O)c(C(=O)Nc2nc(C34CC5CC(CC(C5)C3)C4)cs2)c(O)c2ccccc21 | 17.9 µM (inactive) | 34.4 µM (inactive) | 19.1 µM (inactive) | 49.3 µM (inactive) | 34.3 µM (inactive) | 50.6 µM (inactive) | 39.8 µM (inactive) | 82.8 µM (inactive) | 21.5 µM | 50.7 µM (inactive) | 10.2 µM (inactive) | 44 µM (inactive) | 25.3 µM (inactive) | 23.4 µM (inactive) | 33.1 µM (inactive) | 63 µM (inactive) |  | 32.4 µM (inactive) | 37.1 µM (inactive) | 30 µM (inactive)
9 | CCC1OC2C(CC=C(C)C)=C3OC(C)(O)C(C)(CC)C(OC(=O)c4ccccc4)C3=C3OC(=O)C=C1C32 (configuration not stated) | 34.3 µM (inactive) | 19.8 µM (inactive) | 40.8 µM (inactive) | 51.6 µM (inactive) | 35.2 µM (inactive) | 47.6 µM (inactive) | 41.7 µM (inactive) | 52 µM (inactive) | 38.4 µM |  | 38.4 µM (inactive) | 18.8 µM (inactive) | 40.3 µM (inactive) | 3.44 µM (inactive) | 50.7 µM (inactive) | 83.9 µM (inactive) | 22.8 µM (inactive) | 23.1 µM (inactive) | 59.8 µM (inactive) | 32.1 µM (inactive)
10 | CCOP1(=O)OCC2OC(n3cnc4c(N)ncnc43)C(O)C2O1.c1ccccc1 (configuration not stated) | > 100 µM (inactive) | > 100 µM (inactive) | > 100 µM (inactive) | > 100 µM (inactive) |  | > 100 µM (inactive) | > 100 µM (inactive) | > 100 µM (inactive) | > 100 µM | > 100 µM (inactive) | > 100 µM (inactive) | > 100 µM (inactive) | > 100 µM (inactive) | > 100 µM (inactive) | > 100 µM (inactive) | > 100 µM (inactive) | > 100 µM (inactive) | > 100 µM (inactive) | > 100 µM (inactive) | > 100 µM (inactive)
11 | O=C1/C(=C\c2cccc(Oc3ccccc3)c2)SC(c2ccccc2)N1c1ccccc1 (configuration not stated) | > 100 µM (inactive) | 27.1 µM (inactive) | 26.4 µM (inactive) | 95.7 µM (inactive) | 92.5 µM (inactive) | 30 µM (inactive) | > 100 µM (inactive) | > 100 µM (inactive) | 77.3 µM | > 100 µM (inactive) | 52.1 µM (inactive) | 17.1 µM (inactive) | > 100 µM (inactive) | 46.8 µM (inactive) |  | 81.1 µM (inactive) | > 100 µM (inactive) | > 100 µM (inactive) | 11.9 µM (inactive) | 20.1 µM (inactive)
